Measurements published in US5130323A, “Pyrrolidine derivatives” (Fujisawa Pharmaceutical Co., Ltd., priority 1988, dated 1992).

Key:
[1] = target: T1, TXA2 synthetase (Homo sapiens, UniProt P24557); assay: Inhibition of TXA2 synthetase; type: biochemical; details: aspirin treated human platelet microsome, PGH2 as substrate, 25° C., TXB2 measured by radioimmunoassay; read-out: IC50 (Inhibition concentration of TXB2 generation by 50%)
T1 construct: human platelet microsome; purchased Ran Biochem, Israel; host or cells: human platelet microsomes, aspirin treated (APM)
T1 sequence (P24557 1-533): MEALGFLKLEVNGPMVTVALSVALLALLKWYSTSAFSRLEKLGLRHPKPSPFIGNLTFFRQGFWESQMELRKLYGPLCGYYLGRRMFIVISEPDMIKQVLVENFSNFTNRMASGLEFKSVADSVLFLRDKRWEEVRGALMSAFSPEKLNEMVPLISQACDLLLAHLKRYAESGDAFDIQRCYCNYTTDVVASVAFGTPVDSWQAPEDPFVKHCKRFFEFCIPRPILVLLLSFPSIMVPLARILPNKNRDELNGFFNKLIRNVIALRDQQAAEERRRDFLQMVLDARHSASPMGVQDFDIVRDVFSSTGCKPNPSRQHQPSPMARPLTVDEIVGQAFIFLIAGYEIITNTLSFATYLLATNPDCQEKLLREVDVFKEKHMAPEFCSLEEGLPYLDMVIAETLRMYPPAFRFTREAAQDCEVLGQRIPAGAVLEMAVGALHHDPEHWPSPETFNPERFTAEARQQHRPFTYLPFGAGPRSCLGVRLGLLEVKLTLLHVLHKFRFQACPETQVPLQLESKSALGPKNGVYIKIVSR
Description: Aspirin treated human platelet microsome APM, Ran Biochem, Israel) was used as a source of TXA2 synthetase. APM was suspended in 50 mM Tris/100 mM NaCl buffer (pH 7.5). 10 μl of test compound solution was added to 90 μl of APM suspension and incubated at 25° C. for 3 min. And then, 2 μl of PGH2 (10 μg/ml in aceton, Ran Biochem.) was added. After 3-min incubation period, the reaction was terminated by adding 10 μl of FeCl2 solution (25 mM in H2 O), and set aside at room temperature for 15 min and then on ice. The reaction mixture was centrifuged at 10000 rpm for 5 min at 4° C. TXB2 in the supernatant was measured by radioimmunoassay. IC50 (Inhibition concentration of TXB2 generation by 50%) were graphically determined.

[2] = system: human platelet aggregation induced by U46619; assay: Inhibition of human platelet aggregation induced by U46619; type: cell-based; details: human platelet rich plasma, U46619 final 1.0 μM, 37° C.; read-out: IC50 (Inhibition concentration of platelet aggregation by 50%)
Description: In the following test, the used 9,11-methanoepoxy PGH2 (U46619) is characterized pharmacologically as TXA2 mimetic agent and widely used for evaluating TXA2 antagonism of test compounds (for example, vide The Journal of Pharmacology and Experimental Therapeutics Vol. 234, pp 435-441).
Human blood was obtained from healthy male volunteers and mixed with 3.8% (w/v) sodium citrate in a ratio of 9:1. Platelet rich plasma (PRP) was prepared from the citrated blood by centrifugation at 150×g for 15 min. Platelet aggregation in PRP was studied photometrically using an aggregometer (NKK HAEMATRACER 1 . To the 225 μl of PRP, 25 μl of test compound solution was added, and then stirred at 1000 rpm for 2 min at 37° C. To the solution, 5 μl of U46619 (final 1.0 μM) was added as an aggregating inducer. IC50 (Inhibition concentration of platelet aggregation by 50% were determined graphically.

With `O=C(O)CCC/C=C\[C@@H]1C[C@@H](NS(=O)(=O)c2ccc(Cl)cc2)CN1Cc1cccnc1` [test compound (1), (2S,4R)-2-[(Z)-5-Carboxy-1-pentenyl]-4-(4-chlorophenylsulfonylamino)-1-(3-pyridylmethyl)pyrrolidine] the IC50 [1] was 46 nM and the IC50 [2] was 270 nM.
